For data set [1] the following is noted: cited from earlier work.
The conditions of data set [2]: at toxic plasma concentration; cited from earlier work.
Data set [3] concerns guinea pig isolated hearts. As to the kind of experiment: bupivacaine-induced QRS prolongation in isolated hearts (FIG. 8). Conditions: bupivacaine (1 μM); isolated hearts paced at 200 BPM.

With `CN(C)CCC=C1c2ccccc2CCc2ccccc21` [amitriptyline], in data set [1] (in vivo), the “plasma concentration that begins to cause cardiac toxicity” value is recorded as ~1,000 ng/ml. For the same molecule, the bound in plasma in data set [2] is on record as 94.8±0.8%. Consider `CCCCN1CCCCC1C(=O)Nc1c(C)cccc1C` (stereo not shown) [Bupivacaine, bupivacaine], for which the QRS prolongation result in data set [3] was “induces QRS prolongation”. Regarding `C[C@H]1O[C@@H](O[C@H]2[C@@H](O)C[C@H](O[C@H]3[C@@H](O)C[C@H](O[C@H]4CC[C@@]5(C)[C@H](CC[C@@H]6[C@@H]5C[C@@H](O)[C@]5(C)[C@@H](C7=CC(=O)OC7)CC[C@]65O)C4)O[C@@H]3C)O[C@@H]2C)C[C@H](O)[C@@H]1O` [digoxin], the “concentration at which toxicity is caused” value in data set [1] (low concentrations) is reported as “approximately 1 nM”.

The values are drawn from patent publication US7563613B2, “Detoxification and decontamination using nanotechnology therapy” (University of Florida, priority 2001, dated 2009).
